Results on 51 compounds are retold here after PMC11995724, “Antibiotic target discovery by integrated phenotypic and activity-based profiling of electrophilic fragments” (Cell chemical biology, 2025).

The structures appear in SMILES notation. Counter-ions that a name gives are not always drawn.

This data set in a line: in vitro. Conditions: human, hek293t cells.
As for `CC(c1cccc(NC(=O)c2ccccc2)c1)N(C)C(=O)CCl` (stereo not drawn) [6-M22, N-{3-[1-(2-chloro-N-methylacetamido)ethyl]phenyl}benzamide], the viability (as a rule, a read-out of living cells in per cent, often relative to untreated cells) at 48 h, 25 µM turned out to be 0.237%.

As for `Cc1cc(C=C2CCN(C(=O)C(C)Cl)CC2)no1` (stereo not drawn) [6-N03, 2-chloro-1-{4-[(5-methyl-1,2-oxazol-3-yl)methylidene]piperidin-1-yl}propan-1-one], the viability at 48 h, 25 µM turned out to be 104%.

`Cc1ccc(C)c(NC(=O)CN(C)C(=O)CCl)c1` [6-N04, 2-chloro-N-{[(2,5-dimethylphenyl)carbamoyl]methyl}-N-methylacetamide]: the viability at 48 h, 25 µM came out at 0.906%. To `CC(Cl)C(=O)N1CCC(n2c(=O)[nH]c3ccccc32)CC1` (stereo not drawn) [6-N05, 1-[1-(2-chloropropanoyl)piperidin-4-yl]-2,3-dihydro-1H-1,3-benzodiazol-2-one] belongs 109%.

Turning to `O=C(CCl)Nc1ccc2oc3ccccc3c2c1` [6-N06, 2-chloro-N-{8-oxatricyclo[7.4.0.0,2,7]trideca-1(9),2(7),3,5,10,12-hexaen-4-yl}acetamide], the viability at 48 h, 25 µM was found to be 2.09%. With `CC(Cl)C(=O)N1CCOC(c2ccc(Cl)s2)C1` (stereo not drawn) [6-N07, 2-chloro-1-[2-(5-chlorothiophen-2-yl)morpholin-4-yl]propan-1-one] the figure was 111%; with `O=C(CCl)NC1CCN(C(=O)CCc2ccccc2)CC1` [6-N08, 2-chloro-N-[1-(3-phenylpropanoyl)piperidin-4-yl]acetamide], 1.6%; with `CCc1nc2cc(CNC(=O)C(C)Cl)ccc2n1C1CC1` (stereo not drawn) [6-N09, 2-chloro-N-[(1-cyclopropyl-2-ethyl-1H-1,3-benzodiazol-5-yl)methyl]propanamide], 102%.

Regarding `CCN(CC)c1ccc(NC(=O)CCl)cc1` [6-N10, 2-chloro-N-[4-(diethylamino)phenyl]acetamide], the viability at 48 h, 25 µM came to 2.56%. As to `CC(Cl)C(=O)N1CCC(Cc2ccncc2)C1` (stereo not drawn) [6-N11, 2-chloro-1-{3-[(pyridin-4-yl)methyl]pyrrolidin-1-yl}propan-1-one], the viability at 48 h, 25 µM worked out at 106%. As to `N#CCCSc1ccccc1NC(=O)CCl` [6-N12, 2-chloro-N-{2-[(2-cyanoethyl)sulfanyl]phenyl}acetamide], the viability at 48 h, 25 µM came out at 1.44%. To `CC(Cl)C(=O)Nc1ccc2c(c1)ncn2-c1ccccc1` (stereo not drawn) [6-N13, 2-chloro-N-(1-phenyl-1H-1,3-benzodiazol-5-yl)propanamide] belongs 105%; to `CC(Cl)C(=O)NCc1nnc2n1-c1ccccc1CC2` (stereo not drawn) [6-N14, 2-chloro-N-({4H,5H-[1,2,4]triazolo[4,3-a]quinolin-1-yl}methyl)propanamide], 110%.

For `CC(Cl)C(=O)NCCS(=O)(=O)c1cccs1` (stereo not drawn) [6-N15, 2-chloro-N-[2-(thiophene-2-sulfonyl)ethyl]propanamide], the viability at 48 h, 25 µM came to 105%. `CC(Cl)C(=O)N1CCCN(C)c2cc(F)ccc21` (stereo not drawn) [6-N16, 2-chloro-1-(7-fluoro-5-methyl-2,3,4,5-tetrahydro-1H-1,5-benzodiazepin-1-yl)propan-1-one]: the viability at 48 h, 25 µM was found to be 101%. Regarding `Cc1nn(C)c(N2CCCN(C)CC2)c1CNC(=O)C(C)Cl` (stereo not drawn) [6-N17, 2-chloro-N-{[1,3-dimethyl-5-(4-methyl-1,4-diazepan-1-yl)-1H-pyrazol-4-yl]methyl}propanamide], the viability at 48 h, 25 µM was determined as 107%. To `CC(Cl)C(=O)N1C2CCC1CC1(C2)CC1(F)F` (stereo not drawn) [6-N18, 2-chloro-1-{2',2'-difluoro-8-azaspiro[bicyclo[3.2.1]octane-3,1'-cyclopropan]-8-yl}propan-1-one] belongs 112%; to `CC(Cl)C(=O)N1CCN(Cc2ccc(C(F)(F)F)cc2)C(=O)C1` (stereo not drawn) [6-N19, 4-(2-chloropropanoyl)-1-{[4-(trifluoromethyl)phenyl]methyl}piperazin-2-one], 99.6%; to `CC(Cl)C(=O)N1CCN(c2cc(-c3ccccc3F)n[nH]2)CC1` (stereo not drawn) [6-N20, 2-chloro-1-{4-[3-(2-fluorophenyl)-1H-pyrazol-5-yl]piperazin-1-yl}propan-1-one], 86.2%. Take `CC(Cl)C(=O)N1CCCC(c2nc(-c3cccc(F)c3)no2)C1` (stereo not drawn) [6-N21, 2-chloro-1-{3-[3-(3-fluorophenyl)-1,2,4-oxadiazol-5-yl]piperidin-1-yl}propan-1-one]: the viability at 48 h, 25 µM was determined as 90.2%.

Regarding `CC(Cl)C(=O)N(c1cccc(C#N)c1)C1CCC1` (stereo not drawn) [6-N22, 2-chloro-N-(3-cyanophenyl)-N-cyclobutylpropanamide], the viability at 48 h, 25 µM amounted to 90.1%.

Consider `COc1ccc(S(N)(=O)=O)cc1NC(=O)CCl` [6-O03, 2-chloro-N-(2-methoxy-5-sulfamoylphenyl)acetamide], for which the viability at 48 h, 25 µM is 0.606%. Take `COc1ccc(OC)c(NC(=O)CCl)c1` [6-O04, 2-chloro-N-(2,5-dimethoxyphenyl)acetamide]: the viability at 48 h, 25 µM turned out to be 0.314%.

Consider `O=C(CCl)NCCCC1CCCCC1` [6-O05, 2-chloro-N-(3-cyclohexylpropyl)acetamide], for which the viability at 48 h, 25 µM stood at 45.7%. With `CC1CCCCC1OCCNC(=O)CCl` (stereo not drawn) [6-O06, 2-chloro-N-{2-[(2-methylcyclohexyl)oxy]ethyl}acetamide] the figure was 112%; with `Cc1cccc(N(Cc2ccccc2)C(=O)CCl)c1` [6-O07, N-benzyl-2-chloro-N-(3-methylphenyl)acetamide], 0.964%; with `O=C(CCl)Nc1ccnn1Cc1ccccc1Cl` [6-O08, 2-chloro-N-{1-[(2-chlorophenyl)methyl]-1H-pyrazol-5-yl}acetamide], 0.422%. Turning to `CCOc1ccc(NC(=O)C(C)Cl)cc1` (stereo not drawn) [6-O09, 2-chloro-N-(4-ethoxyphenyl)propanamide], the viability at 48 h, 25 µM came to 89.5%. For `CCC(NC(=O)CCl)c1ccc(Cl)cc1` (stereo not drawn) [6-O10, 2-chloro-N-[1-(4-chlorophenyl)propyl]acetamide], the viability at 48 h, 25 µM was determined as 1.9%. With `O=C(O)C1CCN(C(=O)CCl)CC1` [6-O11, 1-(2-chloroacetyl)piperidine-4-carboxylic acid] the figure was 113%; with `CS(=O)(=O)c1ccc(CNC(=O)CCl)cc1` [6-O12, 2-chloro-N-[(4-methanesulfonylphenyl)methyl]acetamide], 1.69%. With `CC(Cl)C(=O)Nc1ccc(OCc2ccccc2)cc1` (stereo not drawn) [6-O13, N-[4-(benzyloxy)phenyl]-2-chloropropanamide] the figure was 99.7%; with `O=C(CCl)Nc1ccc(S(=O)(=O)c2ccc(F)cc2)cc1` [6-O14, 2-chloro-N-[4-(4-fluorobenzenesulfonyl)phenyl]acetamide], 0.578%; with `CC(Cl)C(=O)NCc1cccc(Cn2cnc3ccccc32)c1` (stereo not drawn) [6-O16, N-({3-[(1H-1,3-benzodiazol-1-yl)methyl]phenyl}methyl)-2-chloropropanamide], 116%. With `O=C(CCl)Nc1cccnn1` [6-O17, 2-chloro-N-(pyridazin-3-yl)acetamide hydrochloride] the figure was 118%.

In the case of `O=C(CCl)NC(c1ccccc1)C1CCCC1` (stereo not drawn) [6-O18, 2-chloro-N-[cyclopentyl(phenyl)methyl]acetamide], the viability at 48 h, 25 µM stood at 8.29%. With `O=C(CCl)NC1CCCS(=O)(=O)c2ccccc21` (stereo not drawn) [6-O19, 2-chloro-N-(1,1-dioxo-2,3,4,5-tetrahydro-1lambda6-benzothiepin-5-yl)acetamide] the figure was 5.88%; with `C[C@@H](NC(=O)CCl)c1ccccc1` [6-O20, 2-chloro-N-[(1R)-1-phenylethyl]acetamide], 121%. To `CCN(Cc1ccccc1)C(=O)CCl` [6-O21, N-benzyl-2-chloro-N-ethylacetamide] belongs 1.53%; to `COCc1ccc(CNC(=O)CCl)cc1` [6-O22, 2-chloro-N-{[4-(methoxymethyl)phenyl]methyl}acetamide], 99.4%. Consider `CC(Cl)C(=O)N1CCNC(=O)C1Cc1nc2ccccc2o1` (stereo not drawn) [6-P03, 3-[(1,3-benzoxazol-2-yl)methyl]-4-(2-chloropropanoyl)piperazin-2-one], for which the viability at 48 h, 25 µM was determined as 110%. With `COc1ccc(C2=NN(C(=O)CCl)C(c3cccc(F)c3)C2)cc1` (stereo not drawn) [6-P04, 2-chloro-1-[5-(3-fluorophenyl)-3-(4-methoxyphenyl)-4,5-dihydro-1H-pyrazol-1-yl]ethan-1-one] the figure was 0.182%; with `CC(Cl)C(=O)NCc1cnc(N2CCOCC2)s1` (stereo not drawn) [6-P05, 2-chloro-N-{[2-(morpholin-4-yl)-1,3-thiazol-5-yl]methyl}propanamide], 116%.

As to `CC(Cl)C(=O)NC(=O)NCc1ccccc1` (stereo not drawn) [6-P06, 1-benzyl-3-(2-chloropropanoyl)urea], the viability at 48 h, 25 µM was 123%. With `CC(Cl)C(=O)NC(C)c1nc(-c2cccnc2)cs1` (stereo not drawn) [6-P07, 2-chloro-N-{1-[4-(pyridin-3-yl)-1,3-thiazol-2-yl]ethyl}propanamide] the figure was 115%; with `CC(Cl)C(=O)Nc1ccc(F)c(F)c1` (stereo not drawn) [6-P08, 2-chloro-N-(3,4-difluorophenyl)propanamide], 101%; with `CC(Cl)C(=O)NC(C)C(c1ccccc1Cl)n1cccn1` (stereo not drawn) [6-P09, 2-chloro-N-[1-(2-chlorophenyl)-1-(1H-pyrazol-1-yl)propan-2-yl]propanamide], 119%. For the compound `COc1ccc(CNC(=O)C(C)Cl)cc1OC` (stereo not drawn) [6-P10, 2-chloro-N-[(3,4-dimethoxyphenyl)methyl]propanamide], the viability at 48 h, 25 µM amounted to 113%. To `CC(Cl)C(=O)N(Cc1cnn(C)c1)c1ccc(F)cc1` (stereo not drawn) [6-P11, 2-chloro-N-(4-fluorophenyl)-N-[(1-methyl-1H-pyrazol-4-yl)methyl]propanamide] belongs 114%; to `CC(Cl)C(=O)NC(C)c1ccns1` (stereo not drawn) [6-P12, 2-chloro-N-[1-(1,2-thiazol-5-yl)ethyl]propanamide], 115%. With `CC(Cl)C(=O)NC(C)c1ncn(C)n1` (stereo not drawn) [6-P13, 2-chloro-N-[1-(1-methyl-1H-1,2,4-triazol-3-yl)ethyl]propanamide] the figure was 112%.
